Tested on: Noctuidae
Test: Sticky board trap comparison of attractant blends beside cotton crops
Type: in vivo
Source text: Comparisons of a range of attractant blends were made using sticky board traps adjacent to cotton crops on the Darling Downs region of Queensland, Australia. This experimental set up allowed comparison of attractants in the presence of the crop volatiles without confusing factors such as the effect of non-volatile feeding stimulants.
A series of rectangular boards 1.2 metres high×1.5 metres wide were placed approximately 1 metre outside the edge of a cotton field at spacings of 50 metres. The boards were suspended at a height of 1 metre above the ground using star posts. Four 100 mm diameter round holes were made in the centre of the boards and cotton wicks containing experimental attractant mixes were suspended in these holes using a paper clip. The boards were coated on both sides with 500 to 700 grams of polybutene sticker so insects attracted to the experimental volatiles would become trapped on the boards. Impregnated wicks were placed in the traps mid afternoon and traps were checked after 48 hours.

## O=CCc1ccccc1 [PAA, Phenylacetaldehyde]
Table 3, total of all Noctuidae, 3.12 mg of each ingredient per sticky board, traps checked after 48 hours
  Mean (Moths/board): 1.00 Moths/board
Table 3 experiment, sticky traps
  Comparison of moth catch in words: not significantly attractive

— patent publication US20050147640A1, “Noctuid attractant composition” (priority 2002, published 2005)
